Measurements published in patent publication US20220000804A1, “INTRANASAL NANO INDUCER FOR PREVENTING AND TREATING NEURODEGENERATIVE DISEASES AND METHOD THEREOF” (Nasal-Phyto (SZ) Pharmaceutical Technology Co., Ltd., priority 2019, published 2022).

Legend:
[1] = Dissolution/dispersion in water and organic solvents, Tyndall effect; type: physicochemical
Neuroma blast cells N2a = experiment: Cytotoxicity test (MTT method); type: cell-based; conditions: 24 hours after drug addition
Procedure: A group of Neuroma blast cells N2a that are cultured in a blank medium without hydrophobic drugs (i.e., the curcumin analog M1) defines a negative control group, and a rate of cell viability of the Neuroma blast cells N2a in the negative control group is calculated as 100%. FIG. 8 illustrates the results.

- solubility in tetrahydrofuran ([1]; tetrahydrofuran): soluble in tetrahydrofuran
- dissolution / dispersion in water ([1]; water): difficultly dissolved in water
Structure (SMILES): COc1ccccc1/C=C/C(=O)/C=C/c1ccccc1OC [curcumin analog M1]
- cytotoxicity (cell survival rate) (Neuroma blast cells N2a): dose-dependent cytotoxicity
